Like-named read-outs stand apart in the source and are kept apart here.
Tests used:
[1] = Quantification of 1,8-cineole metabolites in human milk (SAFE, GC-MS, internal standard and matrix calibration) after oral intake of 100 mg 1,8-cineole; type: in vivo; details: for Absolute concentration in human milk: single determination
Description: Human milk samples were provided voluntarily by breastfeeding mothers after intake of the non-prescription pharmaceutical Soledum® (Klosterfrau Healthcare Group, Cologne, Germany). Before the beginning of the study, the participants were informed verbally, as well as in written form, about the study procedure and purpose and they were told that withdrawing from the study was possible at any time without giving any reason. All volunteers gave written consent to the analysis of their milk samples and anonymous publication of the resulting data. The Ethical Committee of the Medical Faculty, University Erlangen-Nuremberg, approved the experimental procedures. Each participant was handed a copy of the Soldeum® package instructions and was advised to read it before capsule intake. They were also advised to withdraw from the study if any negative reactions such as medication allergies or interactions with other drugs they were taking were to be expected. Additionally, the volunteers were informed verbally about potential effects of the pharmaceutical preparation on breastfeeding, i.e. the risk of an altered milk flavour and rejection of the milk by the nursling. Accordingly, if this would happen, the mothers were recommended to feed their babies with stored human milk or formula milk products.
The milk donors were between the ages of 29 and 40 years (mean 34 years). During their participation in the study, their breast milk production had to be normal and in excess of their infants' needs, with no breast infections and no overall medical complaints present. Five participants were primiparous, three were multiparous and the breast milk samples were from 19 weeks to 19 months postpartum. For sampling, either electrical or mechanical breast pumps or manual expression techniques were applied, resulting in sample volumes between 10 and 100 mL. The samples were immediately subjected to sample preparation after a maximum storage time of five hours at 7 °C or were stored in a freezer at −20 °C for up to five days.
The participating volunteers were asked to ingest one Soledum® capsule, containing 100 mg 1,8-cineole, and to wait until they themselves or another person began to notice the eucalyptus-like odour on their breath. […] The donors were instructed to keep notes on the dates of capsule intake, first eucalyptus-like odour on their breath and exact sampling time. Unfortunately it was difficult for some mothers to detect the smell on their breath so they expressed the samples after some time without having noticed the smell, or reported having been unsure about the smell. […] Some of the donors repeated the whole experiment and some expressed more than one sample after the capsule intake, resulting in 14 samples in total, from 8 different mothers.
Extracts containing the volatile fraction of the human milk samples were prepared by Solvent Assisted Flavour Evaporation (SAFE) after addition of deuterated 1,8-cineole as internal standard (solution in dichloromethane), followed by 10 min of stirring, then another addition of dichloromethane (50% v/v), and 30 min of stirring. The resulting stable phase was distilled in the SAFE-apparatus at 50 °C and approximately 1x10^−4 mbar. The volatile fraction of the samples was frozen with liquid nitrogen. After thawing, it consisted of two phases, formed by the dichloromethane and by the water out of the milk. The water phase was extracted three times with dichloromethane, and the solvent phases were combined and dried over anhydrous Na2SO4. Finally the sample extracts were concentrated by microdistillation according to Bemelmans at 50 °C to a total volume of 50 to 200 μL.
For GC-MS analyses, an Agilent MSD quadrupole system (GC 7890A with MSD 5975C, Agilent Technologies, Waldbronn, Germany) coupled with a CIS 4C (cooled injection system) and an MPS 2 auto-sampler (Gerstel GmbH & Co. KG, Duisburg, Germany) were used. […]

[2] = Determination of the ratios of enantiomers of chiral metabolites in human milk on chiral GC capillaries; type: in vivo; details: human milk sample B-2a; excluded from Table 3
Description: The separation of the chiral metabolites of 1,8-cineole was successfully achieved using different β- or γ-cyclodextrin-based stationary phases (Rt-bDEXsa, Rt-bDEXse, Rt-bDEXsm and Rt-yDEXsa) for gas chromatographic analysis. Table S1, in the supplementary material, lists the usable separation phases and the respective retention indices (determined according to van den Dool and Kratz) for each pair of enantiomers. It was therefore decided to use the following capillaries for the analysis of the human milk samples: Rt-bDEXsm for separation of 2,3-dehydro-, α2,3-epoxy-, 2-oxo-, 3-oxo- and 9-hydroxy-1,8-cineole, and Rt-yDEXsa for separation of α2-hydroxy-, α3-hydroxy- and β2-hydroxy-1,8-cineole, under the GC conditions described in the experimental section.
For GC-MS analyses, an Agilent MSD quadrupole system (GC 7890A with MSD 5975C, Agilent Technologies, Waldbronn, Germany) coupled with a CIS 4C (cooled injection system) and an MPS 2 auto-sampler (Gerstel GmbH & Co. KG, Duisburg, Germany) were used. Data collection and analysis were performed with the MSD ChemStation E.02.00.493 (Agilent Technologies, Inc.) software. Quantification experiments were carried out on DB-FFAP and DB-5 capillaries (30 m length, 0.25 mm inner diameter, 0.25 µm film thickness, Agilent J&W GC Columns, USA), and for monitoring of the ratio of enantiomers the chiral capillaries Rt-bDEXsa, Rt-bDEXse, Rt-bDEXsm and Rt-yDEXsa (30 m length, 0.32 mm inner diameter, 0.25 µm film thickness, Restek GmbH, Bad Homburg, Germany) were utilised. Pre-columns of uncoated, deactivated fused silica (0.53 mm inner diameter, 0.5 to 3.5 m length) were used to ensure that no potentially present low-volatile residues could contaminate the analytical capillaries. The temperature programme of the column oven was as follows: 40 °C for 2 min, 4 °C/min up to 170 °C, 40 °C/min up to 230 °C (Rt-DEX capillaries), 240 °C (DB-FFAP) and 250 °C (DB-5), respectively, and hold time at end temperature of 5 to 10 min. As carrier gas, helium was used at a flow rate of 1.3 mL/min (velocity 41.1 cm/s). Injection of 1 or 2 µL was performed by the auto-sampler.
For the separation of the pairs of enantiomers of the chiral metabolites of 1,8-cineole, four different capillaries (Rt-bDEXsa, Rt-bDEXse, Rt-bDEXsm, and Rt-yDEXsa) were evaluated for optimisation of the peak-to-peak resolution of the enantiomers by injecting a mixture of all the metabolites in a dichloromethane solution and by varying the heating rate. Besides the separation of each pair of enantiomers from each other, it was also important to confirm that no other metabolite coeluted with any one of the enantiomers, because the milk samples would most probably contain all metabolites. Moreover, the separation conditions for the mixture of reference substances were also tested on some human milk sample extracts and modified accordingly, where necessary, to avoid coelution with interfering matrix compounds.
For calculation of the ratio of enantiomers (that is, the relative abundance of each enantiomer to the not separated mixture of enantiomers), the peak area of each enantiomer was divided by the sum of the peak areas of both enantiomers and multiplied by 100. With the known concentrations of the chiral metabolites in each milk sample, the absolute concentration of each single enantiomer was also calculated by multiplying the concentration with the respective percentage.

[3] = parameters: method as in doi:10.1002/cplu.201200253; details: urine after 100 mg 1,8-cineole; cited from earlier work
[4] = parameters: method as in PMID 22405404; details: cited from earlier work
rats = tested on: rats; parameters: method as in PMID 6068552; details: cited from earlier work
[5] = sample F (no odour), two capsules

With CC12C=CC(CC1)C(C)(C)O2 (stereo not drawn) [2,3-dehydro-1,8-cineole, 2,3-Dehydro-1,8-cineole] the “Estimated maximum level in human milk (concentration calculated with the last calibration point, in parentheses)” value ([1]; sample A-1a (no odour)) was under 1.26 µg/kg, the “Absolute concentration in human milk” value ([1]; sample A-1a (no odour), oral 100 mg 1,8-cineole, values given with (<x) lie beyond calibration range, approximation) was 0.28 µg/kg and the “Absolute concentration in human milk” value ([1]; sample A-1b (odour yes), oral 100 mg 1,8-cineole, values given with (<x) are approximations) was 4.07 µg/kg. The “Absolute concentration in human milk” value ([1]; sample B-1 (odour yes), oral 100 mg 1,8-cineole, values given with (<x) are approximations) was 13.65 µg/kg, the “Absolute concentration in human milk” value ([1]; sample B-2a (no odour), oral 100 mg 1,8-cineole) was 0.07 µg/kg and the “Absolute concentration in human milk” value ([1]; sample B-2b (odour yes), oral 100 mg 1,8-cineole, values given with (<x) are approximations) was 2.80 µg/kg. The “Absolute concentration in human milk” value ([1]; sample B-2c (no odour), oral 100 mg 1,8-cineole) was 0.57 µg/kg, the “Estimated maximum level in human milk (concentration calculated with the last calibration point, in parentheses)” value ([1]; sample C (no odour)) was under 0.88 µg/kg and the “Absolute concentration in human milk” value ([1]; sample C (no odour; very weak odour not caused by 1,8-cineole), oral 100 mg 1,8-cineole, values given with (<x) are approximations) was 0.73 µg/kg. The “Estimated maximum level in human milk (concentration calculated with the last calibration point, in parentheses)” value ([1]; sample D-1 (no odour)) was under 0.97 µg/kg, the “Absolute concentration in human milk” value ([1]; sample D-1 (no odour), oral 100 mg 1,8-cineole, values given with (<x) are approximations) was 0.45 µg/kg and the “Absolute concentration in human milk” value ([1]; sample D-2 (odour yes), oral 100 mg 1,8-cineole, values given with (<x) are approximations) was 5.13 µg/kg. For the same molecule, the “Estimated maximum level in human milk (concentration calculated with the last calibration point, in parentheses)” value ([1]; sample E-1 (no odour)) was under 1.21 µg/kg, the “Absolute concentration in human milk” value ([1]; sample E-1 (no odour), oral 100 mg 1,8-cineole, values given with (<x) are approximations) was 0.19 µg/kg and the “Absolute concentration in human milk” value ([1]; sample E-2 (odour yes), oral 100 mg 1,8-cineole, values given with (<x) are approximations) was 9.63 µg/kg. For the same molecule, the “Absolute concentration in human milk” value ([1]; sample F (no odour), parent ingested two capsules, values given with (<x) are approximations) was 0.59 µg/kg, the “Estimated maximum level in human milk (concentration calculated with the last calibration point, in parentheses)” value [1, 5] was under 2.40 µg/kg and the “Absolute concentration in human milk” value ([1]; sample G (odour yes), oral 100 mg 1,8-cineole, values given with (<x) are approximations) was 21.24 µg/kg. For the same molecule, the “Absolute concentration in human milk” value ([1]; sample H (odour yes), oral 100 mg 1,8-cineole, values given with (<x) are approximations) was 37.69 µg/kg, the “Percentage E1 in single sample (outlier)” value [2] was 100% and the “Presence in human urine” value [3] was “could not be found”.
For CC12CCC(CC1)C(C)(C)O2 [1,8-cineole, 1,8-Cineole], the “Concentration of 1,8-cineole in human milk” value (“Concentration of 1,8-cineole” below) ([4]; sample A-1a (no odour), beyond calibration range, approximation) is given as 2.43 µg/kg, the “1,8-cineole: concentration calculated with the last calibration point (limit in parentheses)” value ([4]; sample A-1a (no odour)) is given as under 13.65 µg/kg and the “Concentration of 1,8-cineole” value ([4]; sample A-1b (odour yes)) is given as 134.72 µg/kg. For the same molecule, the “Concentration of 1,8-cineole” value ([4]; sample B-1 (odour yes)) was 399.39 µg/kg, the “Concentration of 1,8-cineole” value ([4]; sample B-2a (no odour)) was 0.98 µg/kg and the “Concentration of 1,8-cineole” value ([4]; sample B-2b (odour yes)) was 70.97 µg/kg. The “Concentration of 1,8-cineole” value ([4]; sample B-2c (no odour)) was 14.82 µg/kg, the “Concentration of 1,8-cineole” value ([4]; sample C (no odour)) was 13.56 µg/kg and the “Concentration of 1,8-cineole” value ([4]; sample D-1 (no odour), beyond calibration range, approximation) was 5.75 µg/kg. The “1,8-cineole: concentration calculated with the last calibration point (limit in parentheses)” value ([4]; sample D-1 (no odour)) was under 10.59 µg/kg, the “Concentration of 1,8-cineole” value ([4]; sample D-2 (odour yes)) was 226.09 µg/kg and the “Concentration of 1,8-cineole” value ([4]; sample E-1 (no odour), beyond calibration range, approximation) was 3.19 µg/kg. The “1,8-cineole: concentration calculated with the last calibration point (limit in parentheses)” value ([4]; sample E-1 (no odour)) was under 13.18 µg/kg, the “Concentration of 1,8-cineole” value ([4]; sample E-2 (odour yes)) was 504.93 µg/kg and the “Concentration of 1,8-cineole” value ([4]; sample F (no odour), two capsules, beyond calibration range, approximation) was 20.23 µg/kg. For the same molecule, the “1,8-cineole: concentration calculated with the last calibration point (limit in parentheses)” value [4, 5] was under 26.14 µg/kg, the “Concentration of 1,8-cineole” value ([4]; sample G (odour yes)) was 194.46 µg/kg and the “acute oral LD50” value (rats) was 2.5 g/kg bodyweight.

From publication PMC3901259, “Characterisation of the Metabolites of 1,8-Cineole Transferred into Human Milk: Concentrations and Ratio of Enantiomers” (Metabolites, 2013)
